SMILES | melting point [°C]
CCCOC(=O)c1cc(-n2c(OC)nc(C(F)(F)F)c(F)c2=O)c(F)cc1Cl | 76 to 78
Cc1cc2cc(CN3CCC(CCC(N)=O)CC3)cnc2cc1NC(=O)c1ccc(-c2ccc(F)cc2)cc1 | 223 to 227
Cc1cc(C(C)(C)C)cc(C)c1C1C(=O)CC(C)(C)CC1=O | 224 to 249
CC(=O)OCC(=O)Nc1cc(C#N)cc(NC(=O)COC(C)=O)c1Cl | 193 to 195
CC(C)COc1cc(C(=O)O)cc(N)c1C(=O)c1ccccc1 | 192 to 196
C=CC12CCc3cc(NS(=O)(=O)O)ccc3C1CCC1(C)C(O)CCC12 (stereo not given) | 82 to 86
CS(=O)(=O)Nc1cc(OCCNC2CCCC2)ccc1C(=O)Nc1ccccc1 | 231 to 232
CCCCN(Cc1ccc(-c2ccccc2-c2nnnn2C(c2ccccc2)(c2ccccc2)c2ccccc2)cc1)c1ncncc1C(=O)OCC | 142 to 144
CCCCN1C(=O)C2C(=O)N(Cc3cc(C)ccc3C)C(=O)C(C1=O)C2(C)C | 159 to 161
CCC1(C)CC(=O)C(C(=O)Nc2cccc(C(F)(F)F)c2)C(=O)C1 (stereo not given) | 81 to 82
COC(=O)C1=C(Cl)/C(=N/OS(C)(=O)=O)CC(c2ccc(Cl)c(OC)c2F)N1 (stereo not given) | 64 to 66
COC(=O)/C=C/c1cc(-c2ccc(S(C)(=O)=O)cc2)n(CC2CCCCC2)n1 | 48 to 50
COCC1CCCN1S(=O)(=O)c1ccc2c(c1)C1(OCCCO1)C1=NCCCN12 (stereo not given) | 129 to 130
N#CC(=NOCF)C(N)=O | 124 to 125
CC(C)(C)OC(=O)N1CCN(C(c2ccccc2)c2ccc(Cl)cc2)CC1 (single isomer, unassigned; (-)) | 156
COC(=O)c1ncn(C2OC(COC(C)=O)C(OC(C)=O)C2OC(C)=O)n1 (stereo not given) | 107 to 109
O=C1NCC(c2cccs2)SCC1N1C(=O)c2ccccc2C1=O (stereo not given) | 183 to 184
O=CC(=Cc1ccccc1)C(C=O)=Cc1ccccc1 | 109 to 110
CC(C)NC(=O)N1N=C(c2ccc(N)cc2)c2cc(Cl)ccc2CC1C (stereo not given) | 100 to 102
O=C(O)C(=NOc1ccccc1)c1cccs1 | 86
Cc1c(NC(=O)CC(C)(C)C)cc2c(c1C)OC(C)(C)C2(O)Cc1ccc(C(C)C)cc1 (stereo not given) | 177 to 178
N=C(Nc1cc(Cl)cc(NC(=O)/C=C/c2ccccc2C(F)(F)F)c1)c1ccccc1F | 209 to 210
CCN1C(=O)CN=C(c2ccccc2F)c2cc(C(C)=O)ccc21 | 154 to 156

Results, then the compound that gave them:

melting point [°C] | SMILES
122 to 125 | Cc1cc(-n2cncn2)ccc1N
300 | O=C(NC1c2ccccc2-c2[nH]c(=O)c3nccn3c21)c1ccccc1 (stereo not given)
98 | O=C1CSC(=S)N1c1ccccn1
95 to 97 | OCCn1ccccc1=S
124 to 126 | COC(=O)CNC(=O)n1ccc(O)cc1=O
94 | CC(=O)Oc1cccc(-c2noc(C)n2)c1
40 to 43 | CCCCCCCCCCOc1ccc(O)c(C(=O)OC)c1
152 to 154 | CC(=O)NC[C@H]1CN(c2ccc(N3CCC4(CC3)CO4)c(F)c2)C(=O)O1
157 to 160 | CN(C)C=C1CCCc2cc(N3C[C@H](CNC(=O)OC(C)(C)C)OC3=O)ccc2C1=O
246 to 250 | COc1ccc(-c2ccc(C(N)=O)cc2)cc1Br
142 | CN(C)S(=O)(=O)c1ccc(O)c(O)c1
106 to 107 | CC(C)Oc1ccc(Cc2cc3cccc(-c4cccc(C(=O)NCCO)c4)c3s2)cn1
118 to 119 | CC(=O)CCN1C(=O)c2ccccc2S1(=O)=O
258 | O=C1CNC(=O)C(=Cc2cc3ccccc3s2)N1
101 to 103 | CCN1CC(C)Oc2cccc3nc4c(c1c23)CCCC4 (stereo not given)
150 | Brc1cncc2ncc(Br)n12
> 350 | FC(F)(F)c1ccccc1N=C1CCc2cc3c(nc21)C(=Nc1ccccc1C(F)(F)F)CC3
